These are literature values, as cited in US20080279967A1, “Composition and method for increasing the metabolism of free fatty acids and facilitating a favorable blood lipid” (priority 2007, published 2008).

This data set concerns rats. The conditions noted are these: administration to rats.

Molecules are shown by their SMILES.

In the case of `C[N+](C)(C)CCCC(=O)[O-]` [γ-butyrobetaine, 4-trimethylamniobutyrate], the “nitric oxide concentrations in blood” value was “increases” and the vasodilating activities result was “elevated”.
